We go through 29 compounds from US20240173311A1, “METHODS AND COMPOSITIONS FOR MODULATING FGF ACTIVITY” (Recovery Therapeutics, Inc., priority 2021, published 2024).

Like-named read-outs stand apart in the source and are kept apart here.

As a reminder, the ΔTm is the shift of the melting midpoint relative to a reference. By melting point is commonly meant the temperature, or range, at which the solid turns liquid.

For data set [1], the target named is T1, FGF2 in recombinant human FGFR1/FGF2 complex (Homo sapiens, UniProt P09038).
T1 construct: made in house; host or cells: Escherichia coli BL21 (DE3) Star
Kind of data set: Thermal shift assay (TSA), ΔTm of FGF2 peak. Particulars: for ΔTm at 10 µM / ΔTm at 25 µM / ΔTm at 100 µM: read-out: ΔTm (° C.) −FGF2. The class given is binding. The protocol:
(§1) TSA was utilized to biophysically characterize the recombinant human FGFR1/FGF2 complex in the presence or absence of selected compounds of formula (I), Compounds 1, 2a-2f, 20, 5, 60, and 8-13. Compound 1 was prepared according to the procedures described in Example 1, and the other compounds were obtained from commercial sources. The assay functions by protein denaturation over a temperature gradient. During protein unfolding, exposed hydrophobic regions bind a dye and fluoresce due to solvent relaxation effects. Changes in the melting temperature of the protein complex in the presence of each compound were monitored and compounds were screened/ranked using this method.
(§2) Thawed aliquots of purified FGF2 (1.0 mg/mL) and FGFR1 (1.6 mg/mL) proteins were mixed in a 1:1 molar ratio ([…]) on ice for 30 min at 4° C. and plated prior to the thermal shift assay (TSA).
(§3) Complex formation was verified by loading the complexed material on a size exclusion column (superdex 10 300GL S200) and observing the monodisperse peak corresponding to the FGF2/FGFR1 complex (˜ 40 kDa). Compounds described herein were screened in dose response format (0-100 μM) with the FGF2/FGFR1 complex in triplicates. FGF2/ FGFR1/compound complexes were mixed in a 1000:1 ratio with Sypro Orange dye (Sigma-Aldrich). The samples were processed using a Bio-Rad CFX C96 Touch quantitative polymerase chain reaction and run using the FRET assay settings with a heating ramp of 0.3° C./s cycling from 4 to 100° C. Data analysis was performed using the Bio-Rad CFX Manager Software (version 3.1, Bio-Rad) and changes in the melting temperature (Tm) of the complex in the presence of each compound were monitored. The results are shown in Table 9 below and also in FIG. 1 (for Compound 10).

Data set [2] deals with T2, FGFR1 in recombinant human FGFR1/FGF2 complex (Homo sapiens, UniProt P11362).
T2 construct: made in house; host or cells: Escherichia coli BL21 (DE3) Star
Put plainly: Thermal shift assay (TSA), ΔTm of FGFR1 peak. It counts as binding. Particulars: for ΔTm at 10 µM / ΔTm at 25 µM / ΔTm at 100 µM: read-out: ΔTm (° C.) −FGFR1. As to the method:
as §1, §2, §3

T2 sequence (P11362 142-365 limits assumed): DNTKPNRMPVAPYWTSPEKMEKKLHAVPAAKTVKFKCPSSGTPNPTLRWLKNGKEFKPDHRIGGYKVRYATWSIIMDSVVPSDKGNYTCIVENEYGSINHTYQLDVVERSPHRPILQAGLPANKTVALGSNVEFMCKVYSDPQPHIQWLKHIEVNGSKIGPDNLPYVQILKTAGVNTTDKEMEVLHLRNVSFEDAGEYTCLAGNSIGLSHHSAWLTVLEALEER
T2 sequence (P09038 156-288 partner limits assumed): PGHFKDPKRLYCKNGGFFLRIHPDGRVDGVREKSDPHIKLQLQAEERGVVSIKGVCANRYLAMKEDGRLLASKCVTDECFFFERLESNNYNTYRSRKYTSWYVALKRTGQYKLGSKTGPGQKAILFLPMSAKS
T1 sequence (P09038 156-288 limits assumed): as the sequence (P09038 156-288 partner limits assumed) above
T1 sequence (P11362 142-365 partner limits assumed): as the sequence (P11362 142-365 limits assumed) above

Consider `CCN(CC)c1ccc(/C=N/NC(=O)c2ccc(O)cc2)cc1` [Compound 13oe], for which the ΔTm at 10 µM was -0.5 °C in data set [1] (10 μM compound) and -1.5 °C in data set [2] (10 μM compound).
`CCN(CC)c1ccc(C(C)=O)cc1` [Compound 16]: the thermal shift (ΔTm) at 25 µM in data set [1] is 0 °C; in data set [2] it was 0.2 °C.
For the compound `O=Cc1cccc(F)c1` [Compound 1f, 3-fluorobenzaldehyde], the ΔTm at 50 µM in data set [1] (50 μM compound) was -0.4 °C; in data set [2] (50 μM compound), 4 °C.
“(4-(diethylamino)phenyl)(3-(trifluoromethoxy)phenyl)methanone [Compound 9om]”: the “ΔTm (° C.) −FGF2” value in data set [1] (100 μM compound) is “+1.8 °C”. The “ΔTm (° C.) −FGFR1” value in data set [2] (100 μM compound) is “+1.2 °C”.
For the compound `CCN(CC)c1ccc(C2N[C@@H](C(=O)O)C(C)(C)S2)cc1` (stereo partly drawn) [Compound 11o, (4S)-2-(4-(diethylamino)phenyl)-5,5-dimethylthiazolidine-4-carboxylic acid], the thermal shift (ΔTm) at 50 µM in data set [1] (50 μM compound) is -4.2 °C; in data set [2] (50 μM compound) it was 2 °C.
For `CCN(CC)c1ccc(C(O)c2cccc(OC(F)(F)F)c2)cc1` (centres unmarked) [Compound 8om, (4-(diethylamino)phenyl)(3-(trifluoromethoxy)phenyl)methano], in data set [1] (10 μM compound), the “ΔTm (° C.) −FGF2” value was determined as 0 °C. Besides, the “ΔTm (° C.) −FGFR1” value in data set [2] (10 μM compound) was “+0.3 °C”.
As for `O=C(c1ccccc1)c1cccc(F)c1` [Compound 9af], the figures for the ΔTm at 10 µM in data set [1] (10 μM compound) and in data set [2] (10 μM compound) were -6 °C and 9.8 °C, respectively.
`CCN(CC)c1ccc(C(=O)O)cc1` [Compound 17]: the shift in melting temperature (ΔTm) at 100 µM is 0 °C in data set [1] (100 μM compound) and 2.5 °C in data set [2] (100 μM compound).
For the compound `CCN(CC)c1ccc(/C=N/N(c2ccccc2)c2ccccc2)cc1` [Compound 15ob], the figures for the thermal shift (ΔTm) at 25 µM in data set [1] (25 μM compound) and in data set [2] (25 μM compound) were -1 °C and 0 °C, respectively.
On to `CCN(CC)c1ccc(/C=N/Nc2ccc(C#N)cc2)cc1` [Compound 15od, (E)-4-(2-(4-(diethylamino)benzylidene)hydrazineyl)benzonitrile], for which the values for the ΔTm at 10 µM in data set [1] (10 μM compound) and in data set [2] (10 μM compound) were -1 °C and 0 °C, respectively.
As to `CCN(CC)c1ccc(/C=N/Nc2ccccc2)cc1` [Compound 15oc], the ΔTm at 2 µM is -2.4 °C in data set [1] (2 μM compound) and 4.3 °C in data set [2] (2 μM compound).
Regarding `O=Cc1ccc(F)cc1` [Compound 1b], the values for the ΔTm at 100 µM in data set [1] (100 μM compound) and in data set [2] (100 μM compound) were 1 °C and 0 °C, respectively.
For the compound `CCN(CC)c1ccc(/C=N/NC(=O)CN(C)C)cc1` [Compound 13oa, (E)-N′-(4-(diethylamino)benzylidene)-2-(dimethylamino)acetohydrazide], the thermal shift (ΔTm) at 50 µM in data set [1] (50 μM compound) was -2.1 °C; in data set [2] (50 μM compound), 0 °C.
In the case of `CCN(CC)c1ccc(/C=N/NC(=O)C2CCN(CCO)CC2)cc1` [Compound 13oh, (E)-N′-(4-(diethylamino)benzylidene)-1-(2-hydroxyethyl)piperidine-4-carbohydrazide], the ΔTm at 10 µM in data set [1] (10 μM compound) came out at 0 °C; in data set [2] (10 μM compound), 0.6 °C.
Regarding `CCN(CC)c1ccc(/C=N/O)cc1` [Compound 5o], the ΔTm at 2 µM in data set [1] (2 μM compound) was -1 °C; in data set [2] (2 μM compound), 3.5 °C.
For the compound `CCN(CC)c1ccc(/C=N/N=C/c2ccc(N(CC)CC)cc2)cc1` [Compound 10o, 4,4′-((1E,1′E)-hydrazine-1,2-diylidenebis(methaneylylidene))bis(N,N-diethylaniline)], the ΔTm at 2 µM in data set [1] (2 μM compound) was -5.2 °C; in data set [2] (2 μM compound) it was 11 °C.
For the compound `O=Cc1ccccc1F` [Compound 1e], the thermal shift (ΔTm) at 100 µM in data set [1] (100 μM compound) is 0.3 °C; in data set [2] (100 μM compound), 0 °C.
`CCN(CC)c1ccc(/C=N/NC(=O)C2CCOCC2)cc1` [Compound 13ob, (E)-N′-(4-(diethylamino)benzylidene)tetrahydro-2H-pyran-4-carbohydrazide]: the values for the ΔTm at 25 µM in data set [1] (25 μM compound) and in data set [2] (25 μM compound) were -2.7 °C and 1.5 °C, respectively.
As for `O=Cc1ccccc1` [Compound 1a], the shift in melting temperature (ΔTm) at 100 µM in data set [1] is 0 °C; in data set [2] it was 0.5 °C.
For `CCN(CC)c1ccc(/C=N/N2CCN(C(c3ccccc3)c3ccccc3)CC2)cc1` [Compound 15oa, (E)-4-(((4-benzhydrylpiperazin-1-yl)imino)methyl)-N,N-diethylaniline], the shift in melting temperature (ΔTm) at 100 µM was -1.5 °C in data set [1] (100 μM compound) and 2 °C in data set [2] (100 μM compound).
As to `CCN(CC)c1ccc(C(=O)c2ccccc2)cc1` [Compound 9oa], the values for the ΔTm at 10 µM in data set [1] (10 μM compound) and in data set [2] (10 μM compound) were -0.3 °C and 6 °C, respectively.
As to `CCN(CC)c1ccc(C=O)cc1` [Compound 1o, 4-diethylaminobenzaldehyde], the ΔTm at 25 µM is -2 °C in data set [1] and 5 °C in data set [2].
In the case of `CCN(CC)c1ccc(/C=N/Cc2ccccc2)cc1` [Compound 4ow, (E)-4-((benzylimino)methyl)-N,N-diethylaniline], the shift in melting temperature (ΔTm) at 25 µM is -2 °C in data set [1] (25 μM compound) and 4 °C in data set [2] (25 μM compound).
`O=Cc1ccc(Br)cc1` [Compound 1d]: the shift in melting temperature (ΔTm) at 25 µM in data set [1] was 1.6 °C; in data set [2], -2.1 °C.
Take “(4-(diethylamino)phenyl)(3-(trifluoromethyl)phenyl)methanone [Compound 9ob]”: in data set [1] (50 μM compound), the “ΔTm (° C.) −FGF2” value is “+1.5 °C”. In addition, in data set [2] (50 μM compound), the “ΔTm (° C.) −FGFR1” value is “+1.2 °C”.
For the compound `CCN(CC)c1ccc(/C=N/c2ccc(C(F)(F)F)cc2)cc1` [Compound 4oy, (E)-N, N-diethyl-4-(((4-(trifluoromethyl)phenyl)imino)methyl)aniline], the melting point fell in the range of 129.3 to 129.6 °C. In addition, the thermal shift (ΔTm) at 50 µM in data set [1] (50 μM compound) was -4.5 °C. In addition, in data set [2] (50 μM compound), the thermal shift (ΔTm) at 50 µM stood at 7.8 °C.
With `O=Cc1ccc(Cl)cc1` [Compound 1c], the ΔTm at 10 µM in data set [1] was 2 °C; in data set [2], -2.2 °C.
With “(4-(diethylamino)phenyl)(3-methoxyphenyl)methanone [Compound 9oc]”, the “ΔTm (° C.) −FGF2” value in data set [1] (2 μM compound) is −5.6 °C. Also, the “ΔTm (° C.) −FGFR1” value in data set [2] (2 μM compound) was “+9.5 °C”.
As to `CCN(CC)c1ccc(/C=N/c2ccccc2)cc1` [Compound 4on], the ΔTm at 25 µM in data set [1] (25 μM compound) is -0.5 °C; in data set [2] (25 μM compound), 1.5 °C.
